Data reported in patent US8952024B2, “Herbicidal pyrimidone derivatives” (E I du Pont de Nemours and Company, priority 2009, dated 2015).

Assays:
[1] = system: barnyardgrass (Echinochloa crus-galli); assay: Test B flooded paddy test; format: in vivo; details: for pest or weed control at 250 g/ha / pest or weed control at 31 g/ha / pest or weed control at 62 g/ha / pest or weed control at 125 g/ha: Echinochloa crus-galli, 360 h; for pest or weed control at 250 g/ha / Plant response rating, Flood, Barnyardgrass: 250 g ai/ha, flooded paddy test, visual rating on 0 to 100 scale (0 no effect, 100 complete control) after 13 to 15 days; for pest or weed control at 250 g/ha: read-out: Plant response rating, Flood, Barnyardgrass; for pest or weed control at 31 g/ha / pest or weed control at 62 g/ha / pest or weed control at 125 g/ha / Plant response rating, Barnyardgrass: Flood (flooded paddy test), 13 to 15 days; for pest or weed control at 31 g/ha / pest or weed control at 62 g/ha / pest or weed control at 125 g/ha: read-out: Plant response rating, Barnyardgrass; for Barnyardgrass plant response rating: Flood, scale 0 to 100 (0 no effect, 100 complete control)
Summary of the method: (§1)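 Seedlings reaching 2 leaves are flooded 3 cm deep; test material is delivered to that water, which stays at the same depth. Plants remain in a greenhouse 13–15 days and are then scored by eye versus controls from 0 to 100.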

[2] = system: ducksalad (Heteranthera limosa); assay: Test B flooded paddy test; format: in vivo; details: for pest or weed control at 250 g/ha / pest or weed control at 31 g/ha / pest or weed control at 62 g/ha / pest or weed control at 125 g/ha: Heteranthera limosa, 360 h; for pest or weed control at 250 g/ha / Plant response rating, Flood, Ducksalad: 250 g ai/ha, flooded paddy test, visual rating on 0 to 100 scale (0 no effect, 100 complete control) after 13 to 15 days; for pest or weed control at 250 g/ha: read-out: Plant response rating, Flood, Ducksalad; for pest or weed control at 31 g/ha / pest or weed control at 62 g/ha / pest or weed control at 125 g/ha / Plant response rating, Ducksalad: Flood (flooded paddy test), 13 to 15 days; for pest or weed control at 31 g/ha / pest or weed control at 62 g/ha / pest or weed control at 125 g/ha: read-out: Plant response rating, Ducksalad; for Ducksalad plant response rating: Flood, scale 0 to 100 (0 no effect, 100 complete control)
Summary of the method: as §1

[3] = 31 g ai/ha, scale of 0 to 100 where 0 is no effect and 100 is complete control
[4] = 62 g ai/ha, scale 0 to 100, 0 is no effect, 100 is complete control
[5] = 125 g ai/ha, scale 0 to 100, 0 is no effect, 100 is complete control
[6] = 62 g ai/ha, scale of 0 to 100 where 0 is no effect and 100 is complete control

Compound	Plant response rating, Flood, Barnyardgrass [1]	Plant response rating, Barnyardgrass [1, 5]	Plant response rating, Flood, Ducksalad [2]	Plant response rating, Ducksalad [2, 5]	Plant response rating, Barnyardgrass [1, 6]	Barnyardgrass plant response rating ([1]; 31 g ai/ha)	Plant response rating, Ducksalad [2, 6]	Ducksalad plant response rating ([2]; 31 g ai/ha)	other results
COc1ccc(-n2c(-c3ccccc3)ncc(C(=O)C3=C(O)CCCC3=O)c2=O)cc1 [Compound 4, 5-[(2-hydroxy-6-oxo-cyclohexen-1-yl)carbonyl]-3-(4-methoxyphenyl)-2-phenyl-4(3H)-pyrimidinone]	–	–	–	–	–	–	–	–	pest or weed control at 250 g/ha [1]: 20%; pest or weed control at 31 g/ha [1, 3]: 0%; pest or weed control at 62 g/ha [1, 4]: 0%; pest or weed control at 125 g/ha [1, 5]: 0%; pest or weed control at 250 g/ha [2]: 85%; pest or weed control at 31 g/ha [2, 3]: 20%; pest or weed control at 62 g/ha [2, 4]: 40%; pest or weed control at 125 g/ha [2, 5]: 75%
Cc1ccc(-n2c(-c3ccccc3)ncc(C(=O)C3=C(O)CCCC3=O)c2=O)cc1 [Compound 8]	45	20	90	85	–	–	–	–	Plant response rating, Barnyardgrass [1, 3]: 0; Plant response rating, Barnyardgrass [1, 4]: 0; Plant response rating, Ducksalad [2, 3]: 30; Plant response rating, Ducksalad [2, 4]: 85
O=C1CCCC(O)=C1C(=O)c1cnc(-c2ccccc2)n(Cc2ccccc2)c1=O [Compound 17, 5-[(2-hydroxy-6-oxo-1-cyclohexen-1-yl)carbonyl]-2-phenyl-3-(phenylmethyl)-4(3H)-pyrimidinone]	–	–	–	–	–	–	–	–	pest or weed control at 250 g/ha [1]: 25%; pest or weed control at 31 g/ha [1, 3]: 0%; pest or weed control at 62 g/ha [1, 4]: 20%; pest or weed control at 125 g/ha [1, 5]: 25%; pest or weed control at 250 g/ha [2]: 45%; pest or weed control at 31 g/ha [2, 3]: 0%; pest or weed control at 62 g/ha [2, 4]: 30%; pest or weed control at 125 g/ha [2, 5]: 30%
Cc1ccc(-n2c(-c3ccccc3)ncc(C(=O)C3=C(O)CCCC3=O)c2=O)c(C)c1 [Compound 28]	20	–	85	–	–	–	–	–	Plant response rating, Barnyardgrass [1, 4]: 10; Plant response rating, Ducksalad [2, 4]: 70
O=C1CCCC(O)=C1C(=O)c1cnc(-c2ccccc2Br)n(-c2ccccc2)c1=O [Compound 71]	0	0	0	0	0	0	0	0	–
Cc1ccc(-c2ncc(C(=O)C3=C(O)CCCC3=O)c(=O)n2-c2ccccc2)cc1 [Compound 80]	30	25	30	30	20	15	20	0	–
Cc1ccccc1-c1ncc(C(=O)C2=C(O)CCCC2=O)c(=O)n1-c1ccccc1 [Compound 82]	20	15	20	0	0	0	0	0	–
CC(C)CC(=O)OC1=C(C(=O)c2cnc(-c3ccccc3)n(-c3ccccc3)c2=O)C(=O)CCC1 [Compound 83]	40	15	50	40	0	0	30	20	–
CCCCn1c(-c2ccccc2)ncc(C(=O)C2=C(O)CCCC2=O)c1=O [Compound 86]	60	50	65	55	40	30	55	0	–
O=C1CCCC(OC(=O)C2CC2)=C1C(=O)c1cnc(-c2ccccc2)n(-c2ccccc2)c1=O [Compound 88]	60	40	80	75	20	0	40	30	–
CCCCCn1c(-c2ccccc2)ncc(C(=O)C2=C(O)CCCC2=O)c1=O [Compound 89]	40	30	100	100	20	20	90	45	–
CC(C)n1c(-c2ccccc2)ncc(C(=O)C2=C(O)CCCC2=O)c1=O [Compound 95]	70	65	20	0	35	20	0	0	–
CCCn1c(-c2ccc(F)cc2)ncc(C(=O)C2=C(O)CCCC2=O)c1=O [Compound 102]	70	60	85	80	60	15	40	30	–
COCC(C)n1c(-c2ccccc2)ncc(C(=O)C2=C(O)CCCC2=O)c1=O (centres unmarked) [Compound 107]	60	–	40	–	40	–	0	–	–
COCCn1c(-c2cccc(C)c2)ncc(C(=O)C2=C(O)CCCC2=O)c1=O [Compound 117]	75	–	100	–	65	–	–	–	–
COCCCn1c(-c2cccc(C)c2)ncc(C(=O)C2=C(O)CCCC2=O)c1=O [Compound 118, 5-[(2-hydroxy-6-oxo-1-cyclohexane-1-yl)carbonyl]-3-(3-methoxypropyl)-2-(3-methylphenyl)-4(3H)-pyrimidinone]	70	–	100	–	50	–	100	–	–
CCCCn1c(-c2cc(F)cc(F)c2)ncc(C(=O)C2=C(O)CCCC2=O)c1=O [Compound 121]	70	–	80	–	30	–	45	–	–
COCCn1c(-c2cccc(F)c2)ncc(C(=O)C2=C(O)CCCC2=O)c1=O [Compound 123]	70	55	95	90	40	30	80	30	–
O=C1CCCC(O)=C1C(=O)c1cnc(-c2ccccc2)n(C2CCCC2)c1=O [Compound 131]	50	–	85	–	20	–	40	–	–
COCCCn1c(-c2cccc(Br)c2)ncc(C(=O)C2=C(O)CCCC2=O)c1=O [Compound 140]	45	–	85	–	20	–	50	–	–
CCCn1c(-c2cccc(Br)c2)ncc(C(=O)C2=C(O)CCCC2=O)c1=O [Compound 141]	50	–	85	–	20	–	75	–	–
CCCCn1c(-c2cccc(Cl)c2)ncc(C(=O)C2=C(O)CCCC2=O)c1=O [Compound 146]	30	0	100	80	0	0	60	0	–
